Assay results as given in ChEMBL document CHEMBL1201862, “PubChem BioAssay data set” (2004).
Activity calls are given as the source filed them. Unless noted, the rule behind the calls is not given here.

What was measured:
[1] = target: G-protein coupled receptor 55 (Homo sapiens, UniProt Q9Y2T6); assay: GPR55 agonists via beta-arrestin recruitment, primary screen, imaging, U2OS cells, beta-arrestin-GFP redistribution (AID 1961); assay type: functional
Ephrin type-A receptor 4 = Ephrin type-A receptor 4 (Mus musculus, UniProt Q03137); assay: inhibitors of EphA4 binding to KYL peptide, primary screen, biochemical, colorimetric, mouse EphA4 (AID 689); assay type: functional
Sequence of Ephrin type-A receptor 4 (Q03137 whole entry): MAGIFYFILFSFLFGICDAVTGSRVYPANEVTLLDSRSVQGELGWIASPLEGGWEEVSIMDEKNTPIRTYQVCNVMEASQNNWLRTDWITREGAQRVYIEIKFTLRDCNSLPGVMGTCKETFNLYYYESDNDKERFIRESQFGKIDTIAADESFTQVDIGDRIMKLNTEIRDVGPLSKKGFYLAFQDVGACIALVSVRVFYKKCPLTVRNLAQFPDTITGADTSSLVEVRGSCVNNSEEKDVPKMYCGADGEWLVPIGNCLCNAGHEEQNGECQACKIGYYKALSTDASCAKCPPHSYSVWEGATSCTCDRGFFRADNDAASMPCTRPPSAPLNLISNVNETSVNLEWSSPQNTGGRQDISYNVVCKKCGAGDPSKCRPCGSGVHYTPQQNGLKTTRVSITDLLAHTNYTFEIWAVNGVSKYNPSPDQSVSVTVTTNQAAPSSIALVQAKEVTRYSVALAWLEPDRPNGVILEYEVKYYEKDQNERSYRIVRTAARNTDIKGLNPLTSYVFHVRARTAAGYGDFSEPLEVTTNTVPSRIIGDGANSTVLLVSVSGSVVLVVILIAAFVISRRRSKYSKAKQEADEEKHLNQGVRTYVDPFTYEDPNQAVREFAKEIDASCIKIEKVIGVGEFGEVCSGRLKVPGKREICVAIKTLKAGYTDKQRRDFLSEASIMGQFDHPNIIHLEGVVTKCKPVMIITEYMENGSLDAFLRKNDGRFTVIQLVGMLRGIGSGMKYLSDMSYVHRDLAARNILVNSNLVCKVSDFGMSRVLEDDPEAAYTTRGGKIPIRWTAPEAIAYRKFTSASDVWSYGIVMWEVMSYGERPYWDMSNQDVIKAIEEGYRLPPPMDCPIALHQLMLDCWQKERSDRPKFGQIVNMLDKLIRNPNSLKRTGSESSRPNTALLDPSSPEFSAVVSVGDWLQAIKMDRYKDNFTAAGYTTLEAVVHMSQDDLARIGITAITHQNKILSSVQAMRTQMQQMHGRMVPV

[2] = cytotoxicity in HEK-293T cells, dose response, cytotoxicity control for BCR NF-kB inhibitor project, luminescence, B-cell screen hits (AID 489021); assay type: functional, cell-based;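 also: HEK-293T cells carrying an NF-kB luciferase reporter; cells exposed to compound for about 14 hours before viability readout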
[3] = target: E3 ubiquitin-protein ligase XIAP (Homo sapiens, UniProt P98170); assay: Counter Screen using XIAP-Bir3 for Chemical Antagonists of Bir1/2 domains of IAP-family anti-apoptotic proteins. [Related pubchem assays (depositor defined):AID1018, AID1449, AID1514, AID1638, AID1749, AID1750, AID488957, AID488963]
Sequence of E3 ubiquitin-protein ligase XIAP (P98170 whole entry): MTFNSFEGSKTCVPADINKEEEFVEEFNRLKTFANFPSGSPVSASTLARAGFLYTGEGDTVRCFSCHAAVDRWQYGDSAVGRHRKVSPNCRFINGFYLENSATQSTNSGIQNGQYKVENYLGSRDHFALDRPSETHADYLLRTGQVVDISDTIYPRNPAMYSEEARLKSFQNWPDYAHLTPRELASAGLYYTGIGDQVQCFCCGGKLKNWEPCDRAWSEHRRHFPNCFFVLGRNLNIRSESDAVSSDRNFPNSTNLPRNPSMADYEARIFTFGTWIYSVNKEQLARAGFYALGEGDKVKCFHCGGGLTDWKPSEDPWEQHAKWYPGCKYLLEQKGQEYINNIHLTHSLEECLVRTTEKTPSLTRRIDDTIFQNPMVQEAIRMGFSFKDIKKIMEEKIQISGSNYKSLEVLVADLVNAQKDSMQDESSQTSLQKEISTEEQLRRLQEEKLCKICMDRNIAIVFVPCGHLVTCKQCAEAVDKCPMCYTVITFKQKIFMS

[4] = (§1) Late stage assay provider results from the probe development effort to identify inhibitors of Protein Phosphatase Methylesterase 1 (PME-1): luminescence-based […] dose response assay to determine cytotoxicity of inhibitor compounds. [Related pubchem assays (depositor defined):AID2130, AID2143, AID2171, AID2174, AID2177, AID2232, AID2233, AID2291, AID2363, AID2365, AID2366, AID2368, AID2369, AID2371, AID463124, AID463130, AID463131, AID463132, AID463146, AID463149] Panel member name: Serum-free Media; assay type: toxicity
[5] = as §1, with “Fetal Calf Serum” for “Serum-free Media”; assay type: toxicity

Sequence of G-protein coupled receptor 55 (Q9Y2T6 whole entry): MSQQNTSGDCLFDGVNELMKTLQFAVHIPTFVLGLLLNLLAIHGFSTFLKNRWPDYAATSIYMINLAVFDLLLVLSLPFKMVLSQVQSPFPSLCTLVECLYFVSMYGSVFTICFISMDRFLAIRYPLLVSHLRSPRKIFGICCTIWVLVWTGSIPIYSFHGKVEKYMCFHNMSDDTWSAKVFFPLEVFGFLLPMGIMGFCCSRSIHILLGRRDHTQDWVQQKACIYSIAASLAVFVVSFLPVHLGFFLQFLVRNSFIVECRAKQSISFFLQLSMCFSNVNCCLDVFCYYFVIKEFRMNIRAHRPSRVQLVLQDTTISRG

| Structure (SMILES) | EC50 [1] | IC50 (Ephrin type-A receptor 4) | IC50 [2] | IC50 [3] | CC50 [4] | CC50 [5] |
| --- | --- | --- | --- | --- | --- | --- |
| CCC(C)N1C(=O)/C(=C/c2c(NCCCOC(C)C)nc3c(C)cccn3c2=O)SC1=S (stereo unspecified) | 0.532 µM (active) | 9.88 µM (active) | > 80 µM (inactive) | > 20 µM (inactive) | – | – |
| CC[C@]1(c2ccccc2C)C(=O)N(C(=O)OC)N1C(=O)OC | – | – | – | – | > 50 µM (inactive) | > 50 µM (inactive) |
